Measurements as given in patent US6602888B2, “Use of α1C specific compounds to treat benign prostatic hyperplasia” (Synaptic Pharmaceutical Corporation, priority 1992, dated 2003).
Where two headings read alike, the source gives them in different places.

What was measured:
[1] = target: T1, human α2A adrenergic receptor (Homo sapiens, UniProt P08913); experiment: Competition binding, [3H]rauwolscine, α2A receptor
T1 sequence (P08913 1-465): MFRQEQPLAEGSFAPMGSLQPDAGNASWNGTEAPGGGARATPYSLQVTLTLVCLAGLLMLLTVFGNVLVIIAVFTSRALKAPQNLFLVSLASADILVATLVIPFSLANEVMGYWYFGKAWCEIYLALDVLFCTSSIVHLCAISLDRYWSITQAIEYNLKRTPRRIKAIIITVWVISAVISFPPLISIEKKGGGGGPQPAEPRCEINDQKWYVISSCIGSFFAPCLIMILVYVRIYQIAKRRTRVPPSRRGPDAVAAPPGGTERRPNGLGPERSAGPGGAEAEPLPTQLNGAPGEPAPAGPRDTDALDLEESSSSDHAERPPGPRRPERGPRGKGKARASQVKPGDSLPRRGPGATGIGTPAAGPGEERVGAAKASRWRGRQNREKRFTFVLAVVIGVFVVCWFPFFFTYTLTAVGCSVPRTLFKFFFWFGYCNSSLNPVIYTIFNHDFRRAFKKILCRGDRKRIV
Procedure: (§1) To determine the potency of α1 antagonists at the α2 receptors, LM(tk−) cell lines stably transfected with the genes encoding the α2A, α2B, and α2C receptors were used. The cell line expressing the α2A receptor is designated L-α2A, and was deposited on Nov. […] The cell line expressing the α2B receptor is designated L-NGC-α2B, and was deposited on Oct. […] The cell line expressing the α2C receptor is designated L-α2C, and was deposited on Nov. […] Cell lysates were prepared as described above (see Radioligand Binding Assays), and suspended in 25 mM glycylglycine buffer (pH 7.6 at room temperature).

[2] = target: T2, human α2C adrenergic receptor (Homo sapiens, UniProt P18825); experiment: Competition binding, [3H]rauwolscine, α2C receptor; details: for Ki: read-out: Alpha-2 Adrenergic a2c (pK1) (converted)
T2 sequence (P18825 1-462): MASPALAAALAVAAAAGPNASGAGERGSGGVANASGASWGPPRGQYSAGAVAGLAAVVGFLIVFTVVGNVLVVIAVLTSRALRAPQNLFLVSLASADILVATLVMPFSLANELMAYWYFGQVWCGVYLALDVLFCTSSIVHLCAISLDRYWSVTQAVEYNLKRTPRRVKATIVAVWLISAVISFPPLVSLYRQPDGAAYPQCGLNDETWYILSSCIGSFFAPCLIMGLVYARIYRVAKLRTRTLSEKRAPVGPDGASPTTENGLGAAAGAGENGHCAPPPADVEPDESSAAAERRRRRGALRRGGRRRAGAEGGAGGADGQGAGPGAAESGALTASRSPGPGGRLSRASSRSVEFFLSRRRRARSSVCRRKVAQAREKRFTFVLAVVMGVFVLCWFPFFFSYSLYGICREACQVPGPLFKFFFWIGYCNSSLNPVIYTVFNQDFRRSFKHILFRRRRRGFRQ
Procedure: as §1

human 5HT1Dα receptor = target: T3, human 5HT1Dα receptor (Homo sapiens, UniProt P28221); experiment: [3H]serotonin competition binding, 5HT1Dα receptor
T3 construct: host or cells: LM(tk-) clonal cell line Ltk-8-30-84
T3 sequence (P28221 whole entry): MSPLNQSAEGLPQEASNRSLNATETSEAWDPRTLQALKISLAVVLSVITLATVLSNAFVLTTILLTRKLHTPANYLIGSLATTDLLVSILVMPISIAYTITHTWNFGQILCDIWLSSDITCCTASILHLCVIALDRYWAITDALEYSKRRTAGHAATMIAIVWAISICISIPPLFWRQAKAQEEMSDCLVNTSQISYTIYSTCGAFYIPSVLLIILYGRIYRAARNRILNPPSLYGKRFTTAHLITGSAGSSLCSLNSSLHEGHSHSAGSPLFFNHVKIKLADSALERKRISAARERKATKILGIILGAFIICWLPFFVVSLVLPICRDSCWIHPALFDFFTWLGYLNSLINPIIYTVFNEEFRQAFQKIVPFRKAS
Procedure: (§2) 5HT1Dα, 5HT1Dβ, 5HT1E, 5HT1F Receptors: The cell lysates of LM(tk−) clonal cell line stably transfected with the genes encoding each of these 5HT receptor-subtypes were prepared as described above. The cell line for the 5HT1Dα receptor, designated as Ltk-8-30-84, was deposited on Apr. […] The cell for the 5HT1Dβ receptor, designated as Ltk-11, was deposited on Apr. […] The cell line for the 5HT1E receptor, designated 5 HT1E-7, was deposited on Nov. […] The cell line for the 5HT1F receptor, designated L-5-HT1F, was deposited on Dec. […] These preparations were suspended in 50 mM Tris-HCl buffer (pH 7.4 at 37° C.) containing 10 mM MgCl2, 0.2 mM EDTA, 10 μM pargyline, and 0.1% ascorbate.

human 5HT1F receptor = target: T4, human 5HT1F receptor (Homo sapiens, UniProt P30939); experiment: [3H]serotonin competition binding, 5HT1F receptor
T4 construct: host or cells: LM(tk-) clonal cell line L-5-HT1F
T4 sequence (P30939 1-366): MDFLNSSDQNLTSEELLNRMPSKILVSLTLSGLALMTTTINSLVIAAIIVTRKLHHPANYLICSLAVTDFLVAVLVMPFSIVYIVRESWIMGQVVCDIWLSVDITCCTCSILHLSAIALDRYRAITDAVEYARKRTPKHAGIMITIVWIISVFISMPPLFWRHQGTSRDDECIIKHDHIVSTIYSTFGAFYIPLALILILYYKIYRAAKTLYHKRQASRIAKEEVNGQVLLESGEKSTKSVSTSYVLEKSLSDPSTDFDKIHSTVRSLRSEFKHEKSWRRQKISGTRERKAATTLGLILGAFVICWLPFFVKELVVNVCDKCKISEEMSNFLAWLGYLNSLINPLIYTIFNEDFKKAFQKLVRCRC
Procedure: as §2

human 5HT2 receptor = target: T5, human 5HT2 receptor (Homo sapiens, UniProt P28223); experiment: [3H]ketanserin competition binding, 5HT2 receptor; details: for Ki: read-out: Serotonin 5HT2 (pK1)
T5 construct: host or cells: COS-7 (DEAE-dextran); the same paragraph also names a deposited line L-NGC-5HT2
T5 sequence (P28223 whole entry): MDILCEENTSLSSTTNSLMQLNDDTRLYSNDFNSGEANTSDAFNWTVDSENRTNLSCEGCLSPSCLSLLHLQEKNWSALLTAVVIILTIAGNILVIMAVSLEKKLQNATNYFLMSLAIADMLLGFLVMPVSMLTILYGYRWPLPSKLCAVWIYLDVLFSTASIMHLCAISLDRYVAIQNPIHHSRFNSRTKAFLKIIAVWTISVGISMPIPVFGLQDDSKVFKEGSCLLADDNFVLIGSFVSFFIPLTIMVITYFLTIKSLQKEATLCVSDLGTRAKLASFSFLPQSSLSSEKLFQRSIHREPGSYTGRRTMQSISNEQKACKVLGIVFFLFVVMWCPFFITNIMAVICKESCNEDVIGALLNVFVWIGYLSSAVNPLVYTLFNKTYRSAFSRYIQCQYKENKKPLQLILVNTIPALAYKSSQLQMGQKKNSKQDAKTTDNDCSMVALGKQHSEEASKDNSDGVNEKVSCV
Procedure: The coding sequence of the human 5HT2 receptor was obtained from a human brain cortex cDNA library, and cloned into the cloning site of pCEXV-3 eukaryotic expression vector. This construct was transfected into COS-7 cells by the DEAE-dextran method. […] Nonspecific binding was defined by the addition of 10 μM mianserin.

human D2 receptor = target: T6, human D2 receptor (Homo sapiens, UniProt P14416); experiment: [3H]spiperone binding, dopamine D2 receptor; details: for Ki: read-out: Dopamine D2 (pK1)
T6 construct: host or cells: COS-7, transient, DEAE-dextran
T6 sequence (P14416 whole entry): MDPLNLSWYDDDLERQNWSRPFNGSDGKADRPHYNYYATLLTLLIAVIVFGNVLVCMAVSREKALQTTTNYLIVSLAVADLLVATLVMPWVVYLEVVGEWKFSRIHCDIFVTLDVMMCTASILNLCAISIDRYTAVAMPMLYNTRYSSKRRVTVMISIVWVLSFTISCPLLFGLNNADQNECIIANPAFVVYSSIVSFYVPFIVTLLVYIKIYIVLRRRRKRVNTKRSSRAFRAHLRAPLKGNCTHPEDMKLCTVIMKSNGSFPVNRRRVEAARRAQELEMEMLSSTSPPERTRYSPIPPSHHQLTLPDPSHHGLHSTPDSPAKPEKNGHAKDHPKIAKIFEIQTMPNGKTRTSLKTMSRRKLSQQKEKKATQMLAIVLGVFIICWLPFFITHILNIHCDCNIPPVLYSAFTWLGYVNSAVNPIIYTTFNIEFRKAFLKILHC
Procedure: The potency of α1 antagonists at the D2 receptor was determined using membrane preparations from COS-7 cells transfected with the gene encoding the human D2 receptor. The coding region for the human D2 receptor was obtained from a human striatum cDNA library, and cloned into the cloning site of PCDNA 1 eukariotic expression vector. The plasmid DNA for the D2 receptor is designated pcEXV-D2, and was deposited on Nov. […] This construct was transfected into COS-7 cells by the DEAE-dextran method. […] The cell lysates were incubated with [3H]spiperone (2 nM), using 10 μM (+)Butaclamol to determine nonspecific binding.

calcium channels = target: T7, calcium channels (Rattus norvegicus, UniProt P22002); experiment: [3H]nitrendipine competition binding, calcium channels, rat cardiac muscle membranes; details: for Ki: read-out: Calcium Channel (pK1) (converted)
T7 construct: from tissue; host or cells: rat cardiac muscle membranes
T7 sequence (P22002 whole entry, other chains not shown): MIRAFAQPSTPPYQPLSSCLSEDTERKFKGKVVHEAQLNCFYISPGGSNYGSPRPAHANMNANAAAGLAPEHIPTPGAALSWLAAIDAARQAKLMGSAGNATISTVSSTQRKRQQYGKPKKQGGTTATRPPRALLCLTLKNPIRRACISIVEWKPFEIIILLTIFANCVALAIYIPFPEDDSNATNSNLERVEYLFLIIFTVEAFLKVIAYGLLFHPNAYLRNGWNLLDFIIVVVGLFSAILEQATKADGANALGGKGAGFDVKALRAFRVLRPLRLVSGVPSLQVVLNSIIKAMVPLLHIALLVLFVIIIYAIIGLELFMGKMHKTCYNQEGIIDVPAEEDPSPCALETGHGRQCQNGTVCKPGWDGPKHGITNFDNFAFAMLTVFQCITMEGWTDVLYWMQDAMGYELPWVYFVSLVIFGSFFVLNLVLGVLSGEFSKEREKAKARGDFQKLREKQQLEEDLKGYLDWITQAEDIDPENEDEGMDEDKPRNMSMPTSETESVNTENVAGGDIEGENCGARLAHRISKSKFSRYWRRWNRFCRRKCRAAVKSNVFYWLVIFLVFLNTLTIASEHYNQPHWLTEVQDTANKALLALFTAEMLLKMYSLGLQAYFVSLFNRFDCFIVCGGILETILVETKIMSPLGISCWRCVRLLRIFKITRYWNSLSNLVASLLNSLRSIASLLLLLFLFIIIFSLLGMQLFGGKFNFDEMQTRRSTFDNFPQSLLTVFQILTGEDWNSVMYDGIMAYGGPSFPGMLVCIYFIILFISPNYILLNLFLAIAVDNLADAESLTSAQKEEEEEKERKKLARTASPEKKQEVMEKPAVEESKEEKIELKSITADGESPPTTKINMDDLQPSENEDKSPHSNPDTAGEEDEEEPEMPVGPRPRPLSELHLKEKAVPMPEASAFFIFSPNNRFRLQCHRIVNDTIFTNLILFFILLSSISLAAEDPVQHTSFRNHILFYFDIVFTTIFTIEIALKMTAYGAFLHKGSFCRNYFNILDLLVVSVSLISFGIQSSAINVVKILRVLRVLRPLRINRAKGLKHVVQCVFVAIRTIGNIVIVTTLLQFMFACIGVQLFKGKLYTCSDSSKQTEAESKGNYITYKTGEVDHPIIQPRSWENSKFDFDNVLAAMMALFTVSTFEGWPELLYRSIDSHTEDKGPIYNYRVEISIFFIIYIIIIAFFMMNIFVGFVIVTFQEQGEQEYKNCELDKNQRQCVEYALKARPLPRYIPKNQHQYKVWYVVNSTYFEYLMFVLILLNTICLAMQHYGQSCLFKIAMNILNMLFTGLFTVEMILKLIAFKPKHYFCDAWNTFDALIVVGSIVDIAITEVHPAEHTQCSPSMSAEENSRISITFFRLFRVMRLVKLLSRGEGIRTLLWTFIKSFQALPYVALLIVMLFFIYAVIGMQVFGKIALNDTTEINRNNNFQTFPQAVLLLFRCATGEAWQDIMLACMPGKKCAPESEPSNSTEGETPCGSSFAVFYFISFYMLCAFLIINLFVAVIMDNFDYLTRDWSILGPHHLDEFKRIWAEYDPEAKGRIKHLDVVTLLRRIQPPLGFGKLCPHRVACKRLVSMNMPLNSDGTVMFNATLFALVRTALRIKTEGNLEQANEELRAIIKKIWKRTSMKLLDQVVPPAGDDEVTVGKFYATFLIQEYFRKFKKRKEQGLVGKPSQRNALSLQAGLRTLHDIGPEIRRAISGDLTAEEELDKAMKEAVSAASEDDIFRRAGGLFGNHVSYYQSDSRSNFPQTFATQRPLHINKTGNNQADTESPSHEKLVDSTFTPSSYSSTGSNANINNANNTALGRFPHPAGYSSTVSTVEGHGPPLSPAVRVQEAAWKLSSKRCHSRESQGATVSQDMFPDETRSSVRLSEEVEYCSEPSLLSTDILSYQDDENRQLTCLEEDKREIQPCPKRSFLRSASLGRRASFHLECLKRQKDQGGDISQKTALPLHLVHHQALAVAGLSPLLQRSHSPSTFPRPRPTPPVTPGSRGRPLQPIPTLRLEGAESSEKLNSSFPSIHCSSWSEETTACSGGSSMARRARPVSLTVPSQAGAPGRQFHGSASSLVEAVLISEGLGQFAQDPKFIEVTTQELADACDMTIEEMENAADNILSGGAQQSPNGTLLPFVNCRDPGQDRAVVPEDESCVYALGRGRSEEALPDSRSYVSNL
T7 sequence (P54290 25-944 partner limits assumed, other chains not shown): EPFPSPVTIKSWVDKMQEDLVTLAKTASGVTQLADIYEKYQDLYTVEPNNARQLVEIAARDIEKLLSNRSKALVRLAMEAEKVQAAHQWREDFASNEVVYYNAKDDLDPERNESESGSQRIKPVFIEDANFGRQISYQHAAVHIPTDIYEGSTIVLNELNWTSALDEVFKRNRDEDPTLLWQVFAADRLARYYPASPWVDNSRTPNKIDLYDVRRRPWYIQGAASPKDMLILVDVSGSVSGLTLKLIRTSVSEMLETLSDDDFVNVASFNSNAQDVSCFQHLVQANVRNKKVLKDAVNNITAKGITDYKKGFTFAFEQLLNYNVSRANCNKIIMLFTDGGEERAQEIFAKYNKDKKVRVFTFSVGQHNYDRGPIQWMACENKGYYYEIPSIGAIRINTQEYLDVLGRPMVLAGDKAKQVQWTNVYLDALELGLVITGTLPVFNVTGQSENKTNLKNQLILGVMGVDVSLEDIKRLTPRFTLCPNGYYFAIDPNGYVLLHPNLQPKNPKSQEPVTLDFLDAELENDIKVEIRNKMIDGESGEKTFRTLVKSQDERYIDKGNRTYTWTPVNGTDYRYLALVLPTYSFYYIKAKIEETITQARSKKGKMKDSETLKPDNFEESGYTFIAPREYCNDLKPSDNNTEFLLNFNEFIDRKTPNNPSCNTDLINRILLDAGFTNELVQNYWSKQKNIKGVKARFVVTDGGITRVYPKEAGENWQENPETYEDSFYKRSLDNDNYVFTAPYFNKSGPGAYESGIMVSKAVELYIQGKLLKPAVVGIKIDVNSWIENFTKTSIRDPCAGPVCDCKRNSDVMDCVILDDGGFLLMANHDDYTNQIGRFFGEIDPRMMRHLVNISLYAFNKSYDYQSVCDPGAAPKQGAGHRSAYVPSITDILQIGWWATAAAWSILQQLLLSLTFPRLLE
T7 sequence (P54290 945-1091 partner limits assumed, other chains not shown): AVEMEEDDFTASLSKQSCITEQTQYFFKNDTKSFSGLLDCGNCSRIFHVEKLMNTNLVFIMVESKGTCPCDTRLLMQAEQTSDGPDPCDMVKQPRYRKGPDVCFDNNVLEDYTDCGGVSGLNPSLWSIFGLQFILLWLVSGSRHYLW
Procedure: Briefly, the tissue was minced and homogenized in 50 mM Tris-HCl (pH 7.4) containing 0.1 mM phenylmethylsulfonyl fluoride. The homogenates were centrifuged at 1000 g for 15 minutes, the resulting supernatant was centrifuged at 45,000 g for 15 minutes. The 45,000 g pellet was suspended in buffer and centrifuged a second time.

human prostate tissue = experiment: Antagonism of phenylephrine-induced contraction of human prostatic tissue; details: pA2, phenylephrine-induced contraction, dose-ratio method
Procedure: An index of this efficacy can be obtained by determining the potency of α1 antagonists to antagonize the contraction of human prostatic tissue induced by an α1 agonist “in vitro”.
Prostatic adenomas were obtained at the time of surgery from patients with symptomatic BPH. […] Isometric tension was measured with a Grass Instrument FT03 force transducer interfaced with a computer. Tissue strips were contracted with varying concentrations of phenylephrine after incubating for 20 minutes in the absence and presence of at least three different concentrations of antagonist. Dose-response curves for phenylephrine were constructed, and the antagonist potency (pA2) was estimated by the dose-ratio method.

[3] = Table 2, cloned human receptor, read-out: Alpha-2 Adrenergic a2a (pK1) (converted)
[4] = Table 2, rat cardiac muscle membranes
[5] = Table 2, cloned human receptor, read-out: Serotonin 5HT1Da (pK1)
[6] = Table 2, cloned human receptor, read-out: Serotonin 5HT1F (pK1)

Compound	Ki ([2]; Table 2, cloned human receptor) [nM]	Ki (human 5HT2 receptor; Table 2, cloned human receptor) [nM]	Ki (human D2 receptor; Table 2, cloned human receptor) [nM]	Ki (calcium channels; [4]) [nM]	Human Prostate (pA) (human prostate tissue)	Alpha-2 Adrenergic a2c (pK1) ([2]; Table 2, cloned human receptor)	Serotonin 5HT1Da (pK1) (human 5HT1Dα receptor; Table 2, cloned human receptor)	Serotonin 5HT1F (pK1) (human 5HT1F receptor; Table 2, cloned human receptor)	Serotonin 5HT2 (pK1) (human 5HT2 receptor; Table 2, cloned human receptor)	Dopamine D2 (pK1) (human D2 receptor; Table 2, cloned human receptor)	Calcium Channel (pK1) (calcium channels; [4])	Alpha-2 Adrenergic a2a (pK1) ([1]; Table 2, cloned human receptor)	further results
COc1ccc(CCNCC2CCc3ccccc3C2)cc1 (centres unmarked) [Compound 11, 2-[(4-Methoxyphenethyl)aminomethyl]-1,2,3,4-tetrahydronaphthalene]	120	> 100	> 1000	6610	6.64								Ki [1, 3]: 138 nM; Ki (human 5HT1Dα receptor): > 1000 nM; Ki (human 5HT1F receptor): > 10000 nM; Human Prostate (pA) (human prostate tissue; listed as SNAP 5036): low
O=C(CCCN1CCC(NC(=O)c2ccccc2)CC1)c1ccc(Cl)cc1 [Compound 7]					7.63	6.09	<6.0	<5.0	<6.0	<7.0	4.79		
COc1ccccc1N1CCN(CCCNc2c(C)c(=O)n(C)c(=O)n2C)CC1 [5-Methyl-Urapidil, 5-methylurapidil, reference compound]					8.38	6.88	7.30		<6.0	<5.0		6.63	
O=C(NC1CCN(CCc2c[nH]c3ccccc23)CC1)c1ccccc1 [Indoramin, reference compound]	6030	> 100	> 10	29500	7.86								Ki [1, 3]: 11500 nM; Ki (human 5HT1Dα receptor; [5]): > 1000 nM; Ki (human 5HT1F receptor; [6]): > 10000 nM
C=Cc1sc2ccc(Cl)c3c2c1CN(C)CC3 [SKF-104856, 7-Chloro-2-ethenyl-3,4,5,6-tetrahydro-4-methylthieno[4,3,2-ef][3]benzazepine, reference compound]	25.1	> 1000	> 100	20900	7.66								Ki [1]: 50.1 nM; Ki (human 5HT1Dα receptor; [5]): > 100 nM; Ki (human 5HT1F receptor; [6]): > 100 nM
O=C(CCCN1CCC(NC(=O)c2ccccc2)CC1)c1ccccc1 [Compound 9]					7.41	5.90	<6.0	<5.0	<7.0	<7.0	4.44	5.80	
4-fluoro-4-(8-fluoro-1,3,4,5-tetrahydro-2H-pyrido[4,3-b]indol-2-yl)butyrophenone hydrochloride [Compound A-30360, reference compound]					8.72		<6.0	<5.0					Alpha-2 Adrenergic a2a (pK1) [1]: 6.69; Alpha-2 Adrenergic a2c (pK1) [2]: 6.23; Serotonin 5HT2 (pK1) (human 5HT2 receptor): <8.0; Dopamine D2 (pK1) (human D2 receptor): <9.0; Calcium Channel (pK1) (calcium channels): 5.26
COC(=O)C1=C(C)NC(C)=C(C(=O)OCCCN2CCC(c3ccccc3)(c3ccccc3)CC2)C1c1ccc([N+](=O)[O-])cc1.Cl (centres unmarked) [Compound 8, 2,6-Dimethyl-4-(4-nitrophenyl)-1,4-dihydropyridine-3,5-dicarboxylic acid [3-(4,4-diphenylpiperidin-1-yl)propyl] ester methyl ester hydrochloride]		> 100	> 1000		7.46	5.77					6.87	5.99	Ki (human 5HT1Dα receptor): > 1000 nM; Ki (human 5HT1F receptor): > 10000 nM
